Patent US20210052537A1, “COLITIS AMELIORATING AGENT” (ASTA PHARMACEUTICALS, CO., LTD., priority 2018, published 2021)
Where “and” joins values, the source holds several entries; their conditions need not be identical. Identical values can stand only once.

Test system: DSS-induced colitis
Test: DSS-induced colitis mouse model (experimental ulcerative colitis)
Assay type: in vivo
Set-up: Colon wet weight: unit not given here
Protocol: In this Example, mouse models to which dextran sulfate sodium salt (DSS) is used will be described as colitis models. When DSS is administered by being mixed in drinking water of the mouse, an experimental ulcerative colitis model similar to human ulcerative colitis in terms of symptoms such as suppression of body weight increase, blood in stools, and anemia and formation of colon erosion and further lacking intestinal lesion was build (Non-Patent Literature 3). A suppression effect of Compound X on colitis in such a model as the representative colitis model was examined. For the evaluation items, recovery from diarrhea and body weight loss by colitis, and the length and weight of the colon were examined as changes in colon properties, which are widely known to occur by DSS-induced colitis.
For treatment, C57BL/6J, male mice were purchased from CHARLES RIVER LABORATORIES JAPAN, INC. in accordance with previous literature (Non-Patent Literature 2) and 5-week old mice with no abnormal general conditions during quarantine and acclimation period were used for the experiment. After acclimation, the animals were divided in such a way as to be 1 mouse per cage. DSS used in the experiment having a molecular weight of from 36,000 to 50,000 Da was purchased from MP Bio Japan. DSS was added to tap water in such a way as to be 3% and suspended for causing colitis. The suspension was prepared once every 3 days and freely provided to each of the mice as water supply. A solution from which DSS was removed was provided as water supply to a non-pathological control group.
After group division, each of the test substances of Table 1 was suspended in a solution of 0.5% sodium carboxymethyl cellulose (hereinafter, CMC, Nacalai Tesque Inc.) in such a way as to be each treatment of Table 1 and orally administered once daily. […] These control groups, Groups 1 and 2, were orally administered, as the test substance, with the 0.5% CMC solution used as the medium.
Drinking water after the group division was typical water for drinking.
The test started with 6 mice in Group No. 1 and 10 mice each in Group Nos. 2 to 6.
Body weights were measured on the DSS administration starting day (day −5), DSS administration last day (day 0), on day 3, day 5, day 8, and day 10 of test substance administration.
The therapeutic effect was evaluated by observing changes in blood in stools caused by enteritis as the body weight recovery alone can be considered that the body weight increase might have been promoted simply by the growth. Mice feces were observed on the DSS administration starting day (day-5), DSS administration last day (day 0), on day 3, day 5, day 8, and day 10 of test substance administration and scored in accordance with the criteria of Table 2.
For evaluating the therapeutic effect of Compound X, the length and weight of the colon were measured. The mice were euthanized under anesthesia on day 10 of test substance administration and dissected to remove the colon. The removed colon was quickly measured for a length in a relaxed state. Subsequently, feces in the intestinal tract were removed and sufficiently washed with phosphate buffered saline (Wako Pure Chemical Industries, Ltd.) and measured for a wet weight.

[1] = DSS + 1 mg/kg/day oral, day 10, mean ± SD
[2] = DSS + 10 mg/kg/day oral, day 10, mean ± SD
[3] = DSS + 100 mg/kg/day oral, day 10, mean ± SD

Compound: CC1=C(/C=C/C(C)=C/C=C/C(C)=C/C=C/C=C(C)/C=C/C=C(C)/C=C/C2=C(C)C(=O)[C@@H](OC(=O)CNC(=O)NCCCC(=O)O)CC2(C)C)C(C)(C)C[C@H](OC(=O)CNC(=O)NCCCC(=O)O)C1=O.NCCCC[C@H](N)C(=O)O.NCCCC[C@H](N)C(=O)O [Compound X, 4-(3-{4-[18-(4(S)-[3-(3-Carboxypropyl)ureidoacetoxy]-2,6,6-trimethyl-3-oxocyclohexa-1-enyl)-3,7,12,16-tetramethyloctadeca-1(E),3(E),5(E),7(E),9(E),11(E),13(E),15(E),17(E)-nonaenyl]-3,5,5-trimethyl-2-oxocyclohex-3-enyl-1(S)-oxycarbonylmethyl}ureido)butyric acid dilysine salt]
- Blood feces score versus DSS administration group (100 mg/kg/day oral, day 5 of test substance administration, in words): improved blood feces score
- Body weight recovery compared with the DSS administration only (100 mg/kg/day oral, in words): body weight recovery was even further significant
- Body weight (DSS + 1 mg/kg/day oral, day 0 (DSS last day), mean ± SD): 20.3 ± 0.8 g
- Fecal scoring average value (DSS + 1 mg/kg/day oral, day 0 (DSS last day), score 0-3, mean ± SD): 1.2 ± 0.4
- Fecal scoring average value (DSS + 1 mg/kg/day oral, day 3, score 0-3, mean ± SD): 1.7 ± 0.8
- Body weight (DSS + 1 mg/kg/day oral, day 3 of administration, mean ± SD): 14.7 ± 1.3 g
- Body weight (DSS + 1 mg/kg/day oral, day 5, mean ± SD): 15.1 ± 1.5 g
- Fecal scoring average value (DSS + 1 mg/kg/day oral, day 5, score 0-3, mean ± SD): 1.7 ± 0.6
- Body weight (DSS + 1 mg/kg/day oral, day 8, mean ± SD): 18.0 ± 2.4 g
- Fecal scoring average value (DSS + 1 mg/kg/day oral, day 8, score 0-3, mean ± SD): 0.0 ± 0.0
- Body weight [1]: 19.4 ± 2.2 g
- Colon wet weight [1]: 269.0 ± 8.4
- Fecal scoring average value (DSS + 1 mg/kg/day oral, day 10, score 0-3, mean ± SD): 0.0 ± 0.0
- Colon length (DSS + 1 mg/kg/day oral, day 10 of administration, mean ± SD, 1 mg/kg/day): 6.72 cm and 6.72 ± 0.28 cm
- Body weight (DSS + 1 mg/kg/day oral, day −5 (DSS start, before test substance), C57BL/6J mice, mean ± SD): 20.3 ± 0.9 g
- Fecal scoring average value (DSS + 1 mg/kg/day oral, day −5 (before test substance), score 0-3 per Table 2, mean ± SD): 0.0 ± 0.0
- Body weight (DSS + 10 mg/kg/day oral, day 0 (DSS last day), mean ± SD): 18.9 ± 1.1 g
- Fecal scoring average value (DSS + 10 mg/kg/day oral, day 0 (DSS last day), score 0-3, mean ± SD): 1.2 ± 0.4
- Body weight (DSS + 10 mg/kg/day oral, day 3, mean ± SD): 14.9 ± 1.4 g
- Fecal scoring average value (DSS + 10 mg/kg/day oral, day 3, score 0-3, mean ± SD): 1.3 ± 0.5
- Body weight (DSS + 10 mg/kg/day oral, day 5, mean ± SD): 15.9 ± 1.9 g
- Fecal scoring average value (DSS + 10 mg/kg/day oral, day 5, score 0-3, mean ± SD): 1.7 ± 0.5
- Body weight (DSS + 10 mg/kg/day oral, day 8, mean ± SD): 18.5 ± 2.1 g
- Fecal scoring average value (DSS + 10 mg/kg/day oral, day 8, score 0-3, mean ± SD): 0.0 ± 0.0
- Body weight [2]: 19.8 ± 1.7 g
- Colon length [2]: 6.32 ± 0.16 cm
- Colon wet weight [2]: 255.0 ± 12.4
- Fecal scoring average value (DSS + 10 mg/kg/day oral, day 10, score 0-3, mean ± SD): 0.0 ± 0.0
- Body weight (DSS + 10 mg/kg/day oral, day −5 (DSS start, before test substance), mean ± SD): 20.1 ± 0.9 g
- Fecal scoring average value (DSS + 10 mg/kg/day oral, day −5 (before test substance), score 0-3, mean ± SD): 0.0 ± 0.0
- Body weight (DSS + 100 mg/kg/day oral, day 0 (DSS last day), mean ± SD): 19.0 ± 1.0 g
- Fecal scoring average value (DSS + 100 mg/kg/day oral, day 0 (DSS last day), score 0-3, mean ± SD): 1.0 ± 0.0
- Body weight (DSS + 100 mg/kg/day oral, day 3, mean ± SD): 15.2 ± 1.8 g
- Fecal scoring average value (DSS + 100 mg/kg/day oral, day 3, score 0-3, mean ± SD): 1.7 ± 0.8
- Body weight (DSS + 100 mg/kg/day oral, day 5, mean ± SD): 16.7 ± 2.2 g
- Fecal scoring average value (DSS + 100 mg/kg/day oral, day 5, score 0-3, mean ± SD): 1.0 ± 0.0
- Body weight (DSS + 100 mg/kg/day oral, day 8, mean ± SD): 19.8 ± 0.9 g
- Fecal scoring average value (DSS + 100 mg/kg/day oral, day 8, score 0-3, mean ± SD): 0.0 ± 0.0
- Colon wet weight (DSS + 100 mg/kg/day oral, day 10): 238.6
- Body weight [3]: 21.0 ± 0.7 g
- Colon wet weight [3]: 238.6 ± 11.3
- Colon length (DSS + 100 mg/kg/day oral, day 10, mean ± SD, 100 mg/kg/day): 6.80 cm and 6.80 ± 0.12 cm
- Fecal scoring average value (DSS + 100 mg/kg/day oral, day 10, score 0-3, mean ± SD): 0.0 ± 0.0
- Body weight (DSS + 100 mg/kg/day oral, day −5 (DSS start, before test substance), mean ± SD): 20.1 ± 0.9 g
- Fecal scoring average value (DSS + 100 mg/kg/day oral, day −5 (before test substance), score 0-3, mean ± SD): 0.0 ± 0.0
- Colon length compared with DSS group (Group Nos. 3 to 5 (1, 10, 100 mg/kg/day) and Group No. 6 (50 mg/kg/day), in words): longer length of the colon than DSS group
- Colon wet weight compared with DSS group (all treated groups of Table 5, in words): suppressed weight increases compared with DSS group
